The values below come from paper PMC3920740 (Biopolymers, 2013).

Data set [1] concerns MMP-9. In words: Digestion of peptides by MMP-9. The class given is in vitro ADME. The settings on record: MMP-9 (10 U) in Tris-HCl buffer, pH 7.5.
In data set [2] the test system is MMP-9. Kind of data set: Tris-HCl buffer. As to conditions: 37 °C, up to 72 h.

Where a SMILES comes first, the peptide text is derived from it. The star is where a group is joined. Acetyl(1-pyrenyl) = O=C(Cc1ccc2ccc3cccc4ccc1c2c34)*; Acetyl(2-naphthyl) = O=C(Cc1ccc2ccccc2c1)*

Turning to `CC(C)C[C@H](NC(=O)CNC(=O)[C@H](CC(C)C)NC(=O)[C@@H]1CCCN1C(=O)CNC(=O)[C@H](Cc1ccccc1)NC(=O)[C@H](Cc1ccccc1)NC(=O)Cc1ccc2ccccc2c1)C(=O)N[C@@H](CCCNC(=N)N)C(=O)N[C@@H](CO)C(=O)N[C@@H](CCCCN)C(=O)O` [3a] ({Acetyl(2-naphthyl)}-FFGPLGLRSK-OH; N-terminus assumed), in the data set on MMP-9 [1], the share remaining (as a rule, what is left of the initial amount, in per cent) at 72 h, 500 μM amounted to 41%.

Turning to PLSLRSK, in the data set with MMP-9 [2], the cleaved bond result is reported as “L-R, major”.

With `CC(C)C[C@H](NC(=O)[C@H](CO)NC(=O)[C@H](CC(C)C)NC(=O)[C@@H]1CCCN1C(=O)Cc1ccc2ccc3cccc4ccc1c2c34)C(=O)N[C@@H](CCCNC(=N)N)C(=O)N[C@@H](CO)C(=O)N[C@@H](CCCCN)C(=O)O` [4c] ({Acetyl(1-pyrenyl)}-PLSLRSK-OH; N-terminus assumed), the share remaining at 72 h, 500 μM in the data set on MMP-9 [1] came out at 18%.

PLGLRSK: in the data set with MMP-9 [2], the cleaved bond result was “L-R, major”.
